Measurements: paper PMC12857768 (Journal of medicinal chemistry, 2024)
“Also recorded” adds a separate entry of the source.

Experiments:
Pyk2 kinase = Pyk2 kinase (Homo sapiens, UniProt Q14289); test: Pyk2 kinase activity assay; assay type: biochemical; conditions: for Pyk2 kinase inhibitory effect (in words): kinase inhibitory assay
[1] = tested on: circulating organ toxicity biomarkers; test: In vivo toxicity: circulating markers of organ toxicities; set-up: species or system mice; conditions: serum/plasma at end of study, 10 mg/kg oral gavage, N = 9-10
skin lesions = test: Skin lesions / adverse side effects in mice during the in vivo study; set-up: species or system C57BL/6 female mice; conditions: 10 mg/kg oral gavage 5 times per week
GC-induced bone loss = conditions: murine model of GC excess; previous studies; cited from earlier work

Pyk2 kinase, sequence (Q14289 whole entry): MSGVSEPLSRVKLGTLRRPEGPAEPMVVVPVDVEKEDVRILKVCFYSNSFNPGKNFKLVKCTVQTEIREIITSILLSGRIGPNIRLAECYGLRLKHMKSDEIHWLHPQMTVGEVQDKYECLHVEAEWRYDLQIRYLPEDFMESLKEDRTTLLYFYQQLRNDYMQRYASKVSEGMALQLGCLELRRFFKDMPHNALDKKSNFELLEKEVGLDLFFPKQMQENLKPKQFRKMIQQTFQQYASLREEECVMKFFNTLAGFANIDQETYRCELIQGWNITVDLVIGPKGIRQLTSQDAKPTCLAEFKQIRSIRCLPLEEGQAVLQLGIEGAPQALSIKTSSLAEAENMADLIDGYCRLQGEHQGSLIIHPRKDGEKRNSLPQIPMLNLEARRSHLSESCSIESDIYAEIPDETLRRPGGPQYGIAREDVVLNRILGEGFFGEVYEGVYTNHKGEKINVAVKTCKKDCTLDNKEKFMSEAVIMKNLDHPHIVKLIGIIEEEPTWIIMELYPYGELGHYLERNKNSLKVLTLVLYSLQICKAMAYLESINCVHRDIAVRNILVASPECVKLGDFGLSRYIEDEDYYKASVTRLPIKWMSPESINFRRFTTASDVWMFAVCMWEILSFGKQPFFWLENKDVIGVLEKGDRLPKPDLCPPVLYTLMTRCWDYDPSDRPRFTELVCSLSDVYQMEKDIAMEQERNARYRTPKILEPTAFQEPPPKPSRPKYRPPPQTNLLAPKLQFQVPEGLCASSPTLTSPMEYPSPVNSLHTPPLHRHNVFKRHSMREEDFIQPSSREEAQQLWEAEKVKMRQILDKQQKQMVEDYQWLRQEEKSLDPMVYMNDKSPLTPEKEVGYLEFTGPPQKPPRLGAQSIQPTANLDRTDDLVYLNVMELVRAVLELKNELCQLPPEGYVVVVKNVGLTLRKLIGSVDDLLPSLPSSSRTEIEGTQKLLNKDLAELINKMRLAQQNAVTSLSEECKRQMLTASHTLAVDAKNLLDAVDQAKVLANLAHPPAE

SMILES	Pyk2 kinase inhibitory effect (in words) (Pyk2 kinase)	Circulating organ toxicity biomarkers vs control groups ([1]; 10 mg/kg)	Skin lesions / adverse side effects (in words) (skin lesions)	Prevention of GC-induced bone loss (GC-induced bone loss)	IC50 (Pyk2 kinase)	Circulating organ toxicity biomarkers vs control groups [1]
CNC(=O)c1ccccc1Nc1nc(Nc2ccc(NC(=O)CCCCC(=O)NCCCC(O)(P(=O)(O)O)P(=O)(O)O)cc2OC)ncc1Cl [BT-Amide, (4-(6-((4-((5-Chloro-4-((2-(methylcarbamoyl)phenyl)amino)pyrimidin-2-yl)amino)-3-methoxyphenyl)amino)-6-oxohexanamido)-1-hydroxybutane-1,1-diyl)bis(phosphonic Acid)]	moderate inhibitory effects	no significant difference; also recorded: None of the markers were significantly elevated above control levels	no adverse side effects were observed			
CN(c1ccccc1CNc1nc(Nc2ccc3c(c2)CC(=O)N3)ncc1C(F)(F)F)S(C)(=O)=O [PF-431396]				prevents GC-induced bone loss		
CNC(=O)c1ccccc1Nc1nc(Nc2ccc(N3CCC(OC(=O)CCCCC(=O)NCCCC(O)(P(=O)(O)O)P(=O)(O)O)CC3)cc2OC)ncc1Cl [BT-Ester, (4-(6-((1-(4-((5-Chloro-4-((2-(methylcarbamoyl)phenyl)amino)pyrimidin-2-yl)amino)-3-methoxyphenyl)piperidin-4-yl)oxy)-6-oxohexanamido)-1-hydroxybutane-1,1-diyl)bis(phosphonic Acid)]	low inhibition		did not develop skin lesions		119 ± 41 nM	None of the markers were significantly elevated above control levels
